Experimental data reported in patent publication US20230000870A1, “METHODS OF TREATING CANCER IN BIOMARKER-IDENTIFIED PATIENTS WITH INHIBITORS OF CYCLIN-DEPENDENT KINASE 7 (CDK7)” (Syros Pharmaceuticals, Inc., priority 2019, published 2023).

Experiments:
[1] = molecular target: CDK2/Cyclin E1 complex (Homo sapiens, UniProt P24941); assay: CDK2 kinase inhibition assay (Caliper/LabChip EZ Reader); assay type: biochemical; conditions: CDK2/Cyclin E1 0.5 nM, ATP 2 mM, 35 min at 27° C.
Outline: (§1)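 Incubation times were set for ~20% (±5%) peptide phosphorylation by uninhibited enzyme: CDK7 35 min, CDK2 35 min (0.5 nM complex, 2 μM 5-FAM-CDK7tide, 2 mM MgCl2), CDK12 3 hr (50 nM, 2 μM 5-FAM-CDK9tide, 2 mM MgCl2), CDK9 15 min (8 nM, 2 μM 5-FAM-CDK9tide, 10 mM MgCl2). Read-out on LabChip EZ Reader, 27° C.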

[2] = molecular target: CDK7/Cyclin H/MAT1 complex (Homo sapiens, UniProt P50613); assay: CDK7 kinase inhibition assay (Caliper/LabChip EZ Reader); assay type: biochemical; conditions: CDK7/Cyclin H/MAT1 6 nM, ATP 2 mM, 35 min at 27° C.
Outline: as §1

[3] = molecular target: CDK9/Cyclin T1 complex (Homo sapiens, UniProt P50750); assay: CDK9 kinase inhibition assay (Caliper/LabChip EZ Reader); assay type: biochemical; conditions: CDK9/Cyclin T1 8 nM, ATP 2 mM, 15 min at 27° C.
Outline: as §1

[4] = molecular target: T1, CDK12 (aa686-1082)/Cyclin K complex (Homo sapiens, UniProt Q9NYV4); assay: CDK12 kinase inhibition assay (Caliper/LabChip EZ Reader); assay type: biochemical; conditions: CDK12 (aa686-1082)/Cyclin K 50 nM, ATP 2 mM, 3 hr at 27° C.
T1 construct: CDK12 (aa686-1082)/Cyclin K complex
Outline: as §1

[5] = tested on: A673 cells; assay: Inhibition of proliferation of A673 cells (CyQUANT, 72 hour); assay type: cell-based, human; conditions: read-out: Inhibition of Proliferation of A673 Cells (calculated IC50)
Outline: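 Read-out is CyQUANT after a 72 h proliferation period, following the kit protocol. Dilution series in 0.5-log steps over the stated 4 μM to […] range. Cells are A673 (human Ewing's sarcoma), grown in DMEM with 10% FBS and 1 mM sodium pyruvate at 37 °C under 5% CO2.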

[6] = tested on: HCC70 cells; assay: Inhibition of proliferation of HCC70 cells (CyQUANT Direct, 72 hour); assay type: cell-based, human; conditions: read-out: Inhibition of Proliferation of HCC70 Cells (calculated IC50)
Outline: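 Anti-proliferative effect measured with the CyQUANT Direct kit after a 72 h exposure at 37 °C, 5% CO2. Compounds were tested at 0.5 log serial dilutions spanning 4–[…] on HCC70 triple-negative breast cancer cells cultured in RPMI-1640 with 10% FBS.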

CDK9/Cyclin T1 complex, sequence (P50750 whole entry): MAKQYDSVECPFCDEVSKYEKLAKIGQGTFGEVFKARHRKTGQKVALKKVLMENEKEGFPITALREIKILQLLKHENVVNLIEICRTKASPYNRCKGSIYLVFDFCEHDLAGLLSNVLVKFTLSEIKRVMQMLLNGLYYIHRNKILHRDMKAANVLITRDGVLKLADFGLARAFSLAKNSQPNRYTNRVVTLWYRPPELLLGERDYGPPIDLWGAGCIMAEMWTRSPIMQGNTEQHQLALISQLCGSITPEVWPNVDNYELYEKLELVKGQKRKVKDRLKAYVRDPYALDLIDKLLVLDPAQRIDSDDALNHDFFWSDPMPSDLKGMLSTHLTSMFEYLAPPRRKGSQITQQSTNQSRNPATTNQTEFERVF
CDK9/Cyclin T1 complex, sequence (O60563 whole entry partner): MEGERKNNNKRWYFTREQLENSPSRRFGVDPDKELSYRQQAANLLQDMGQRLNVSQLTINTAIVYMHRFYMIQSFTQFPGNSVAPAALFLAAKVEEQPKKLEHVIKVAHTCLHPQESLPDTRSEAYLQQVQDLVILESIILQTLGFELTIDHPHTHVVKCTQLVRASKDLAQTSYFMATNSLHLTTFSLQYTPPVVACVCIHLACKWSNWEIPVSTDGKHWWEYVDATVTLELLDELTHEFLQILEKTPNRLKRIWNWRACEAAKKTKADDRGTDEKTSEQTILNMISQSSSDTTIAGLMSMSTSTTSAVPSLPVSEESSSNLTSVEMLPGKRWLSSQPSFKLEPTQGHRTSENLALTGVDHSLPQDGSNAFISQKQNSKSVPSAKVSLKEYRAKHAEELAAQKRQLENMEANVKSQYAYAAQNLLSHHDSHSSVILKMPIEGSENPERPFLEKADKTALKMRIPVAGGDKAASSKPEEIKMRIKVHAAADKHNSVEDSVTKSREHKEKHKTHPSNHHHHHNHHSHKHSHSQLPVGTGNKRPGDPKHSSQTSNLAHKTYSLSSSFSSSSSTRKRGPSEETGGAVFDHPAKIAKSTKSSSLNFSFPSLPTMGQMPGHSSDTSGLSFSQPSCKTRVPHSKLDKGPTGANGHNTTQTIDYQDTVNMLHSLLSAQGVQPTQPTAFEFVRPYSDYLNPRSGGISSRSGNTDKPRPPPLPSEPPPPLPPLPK
T1 sequence (Q9NYV4 686-1082): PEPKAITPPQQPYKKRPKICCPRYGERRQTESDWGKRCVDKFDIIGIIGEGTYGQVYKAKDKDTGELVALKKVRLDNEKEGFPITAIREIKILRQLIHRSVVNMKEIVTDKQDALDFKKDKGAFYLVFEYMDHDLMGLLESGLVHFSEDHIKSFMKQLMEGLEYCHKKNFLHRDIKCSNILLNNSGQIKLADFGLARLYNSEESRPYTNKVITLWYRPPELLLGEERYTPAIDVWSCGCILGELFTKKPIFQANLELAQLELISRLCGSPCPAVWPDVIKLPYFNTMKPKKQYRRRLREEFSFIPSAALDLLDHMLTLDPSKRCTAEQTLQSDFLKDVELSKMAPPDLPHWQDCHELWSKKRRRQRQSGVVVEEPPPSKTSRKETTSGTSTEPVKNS
T1 sequence (O75909 whole entry partner, the tested form may be a part): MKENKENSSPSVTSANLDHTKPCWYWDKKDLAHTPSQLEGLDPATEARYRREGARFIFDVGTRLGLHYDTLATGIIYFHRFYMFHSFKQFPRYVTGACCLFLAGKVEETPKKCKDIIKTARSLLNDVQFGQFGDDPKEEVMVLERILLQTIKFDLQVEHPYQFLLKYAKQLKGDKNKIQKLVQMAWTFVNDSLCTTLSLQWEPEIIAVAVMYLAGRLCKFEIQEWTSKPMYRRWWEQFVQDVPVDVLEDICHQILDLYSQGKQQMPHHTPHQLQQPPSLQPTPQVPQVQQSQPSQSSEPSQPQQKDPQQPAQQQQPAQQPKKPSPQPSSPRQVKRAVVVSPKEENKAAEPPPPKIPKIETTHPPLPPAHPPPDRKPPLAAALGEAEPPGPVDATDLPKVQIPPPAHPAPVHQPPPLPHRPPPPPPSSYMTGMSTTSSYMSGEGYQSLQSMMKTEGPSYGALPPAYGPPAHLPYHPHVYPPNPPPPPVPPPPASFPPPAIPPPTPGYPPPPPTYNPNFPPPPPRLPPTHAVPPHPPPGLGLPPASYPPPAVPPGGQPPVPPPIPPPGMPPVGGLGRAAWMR
CDK7/Cyclin H/MAT1 complex, sequence (P50613 whole entry): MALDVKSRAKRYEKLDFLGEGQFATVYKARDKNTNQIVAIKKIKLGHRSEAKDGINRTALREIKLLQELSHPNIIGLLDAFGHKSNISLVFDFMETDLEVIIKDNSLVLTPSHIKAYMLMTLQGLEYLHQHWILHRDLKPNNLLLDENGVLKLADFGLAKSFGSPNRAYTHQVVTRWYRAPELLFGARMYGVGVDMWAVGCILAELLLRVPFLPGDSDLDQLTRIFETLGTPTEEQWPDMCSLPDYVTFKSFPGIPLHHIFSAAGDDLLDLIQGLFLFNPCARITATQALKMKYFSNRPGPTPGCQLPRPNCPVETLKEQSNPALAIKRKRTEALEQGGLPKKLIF
CDK7/Cyclin H/MAT1 complex, sequence (P51946 whole entry partner): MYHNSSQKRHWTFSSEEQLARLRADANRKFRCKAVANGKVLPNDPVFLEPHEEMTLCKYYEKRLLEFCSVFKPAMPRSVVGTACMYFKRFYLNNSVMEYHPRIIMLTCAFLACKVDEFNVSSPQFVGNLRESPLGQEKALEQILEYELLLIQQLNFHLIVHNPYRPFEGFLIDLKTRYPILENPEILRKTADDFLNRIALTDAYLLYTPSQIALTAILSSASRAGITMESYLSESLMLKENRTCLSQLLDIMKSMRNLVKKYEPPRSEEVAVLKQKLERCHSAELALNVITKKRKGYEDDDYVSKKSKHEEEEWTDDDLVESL
CDK7/Cyclin H/MAT1 complex, sequence (P51948 whole entry partner): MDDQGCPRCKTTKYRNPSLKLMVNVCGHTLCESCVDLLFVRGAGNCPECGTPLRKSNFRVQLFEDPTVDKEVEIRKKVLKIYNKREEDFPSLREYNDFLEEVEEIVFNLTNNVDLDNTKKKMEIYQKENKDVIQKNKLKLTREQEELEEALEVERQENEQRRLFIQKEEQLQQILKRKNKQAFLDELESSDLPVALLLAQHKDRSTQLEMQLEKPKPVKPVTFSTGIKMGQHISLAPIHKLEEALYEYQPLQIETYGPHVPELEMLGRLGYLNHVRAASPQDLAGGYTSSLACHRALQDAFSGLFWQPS

IC50 [1] [nM] | IC50 [2] [nM] | IC50 [3] [nM] | IC50 [4] [nM] | SMILES | IC50 [5] [nM] | IC50 [6] [nM]
200 to 5000 | < 20 | 200 to 5000 | 200 to 5000 | CCS(=O)(=O)c1cccc2c(-c3nc(N[C@H]4CCCNC4)ncc3C(F)(F)F)c[nH]c12 [Compound 286] | 200 to 5000 | 1000 to 5000
200 to 5000 | 20 to 200 | 200 to 5000 | 200 to 5000 | FC(F)n1ccc(-c2ccc3c(-c4nc(NC5CCCNC5)ncc4C(F)(F)F)c[nH]c3c2)n1 (stereo not drawn) [Compound 289] | 20 to 200 | 100 to 1000
≥ 5000 | 20 to 200 | ≥ 5000 | ≥ 5000 | CC(C)c1cnc(NC2CCCNC2)nc1-c1c[nH]c2ccccc12 (stereo not drawn) [Compound 139] | 200 to 5000 | 1000 to 5000
20 to 200 | < 20 | 200 to 5000 | 200 to 5000 | OC1CCC(c2cccc3c(-c4nc(NC5CCCNC5)ncc4C(F)(F)F)c[nH]c23)CC1 (stereo not drawn) [Compound 185] | < 20 | < 100
200 to 5000 | < 20 | 200 to 5000 | 200 to 5000 | N#Cc1ccc2c(-c3nc(NC4CCCNC4)ncc3C(F)(F)F)c[nH]c2n1 (stereo not drawn) [Compound 251] | < 20 | < 100
200 to 5000 | < 20 | 200 to 5000 | 20 to 200 | FC(F)(F)c1cnc(NC2CCCNC2)nc1-c1n[nH]c2ccccc12 (stereo not drawn) [Compound 103] | 20 to 200 | < 100
20 to 200 | < 20 | 200 to 5000 | 20 to 200 | FC(F)(F)c1cnc(NC2CCCNC2)nc1-c1c[nH]c2c(-c3ccnnc3)cccc12 (stereo not drawn) [Compound 180] | < 20 | < 100
≥ 5000 | 200 to 5000 | ≥ 5000 | ≥ 5000 | CC1CCNCC1Nc1ncc(C(F)(F)F)c(-c2c[nH]c3ccccc23)n1 (stereo not drawn) [Compound 285] | < 20 | < 100
200 to 5000 | < 20 | 200 to 5000 | 200 to 5000 | CS(=O)(=O)c1cccc2c(-c3nc(NC4CCCNC4)ncc3C(F)(F)F)c[nH]c12 (stereo not drawn) [Compound 141] | < 20 | < 100

The remaining lines, values behind:

SMILES | IC50 [1] [nM] | IC50 [2] [nM] | IC50 [3] [nM] | IC50 [4] [nM] | IC50 [5] [nM] | IC50 [6] [nM]
Cc1cccc2c(-c3nc(NC4CCCNC4)ncc3Cl)c[nH]c12 (stereo not drawn) [Compound 112] | 200 to 5000 | < 20 | 200 to 5000 | 20 to 200 | < 20 | < 100
N#Cc1ccc2c(-c3nc(NC4CCCNC4)ncc3Cl)c[nH]c2c1 (stereo not drawn) [Compound 161] | 200 to 5000 | < 20 | 200 to 5000 | 200 to 5000 | < 20 | < 100
FC(F)(F)c1cnc(NC2CNCC(c3nnc4ccccn34)C2)nc1-c1c[nH]c2ccccc12 (stereo not drawn) [Compound 267] | 200 to 5000 | 20 to 200 | 200 to 5000 | 200 to 5000 | < 20 | < 100
Fc1ccc2[nH]cc(-c3nc(NC4CCCNC4)ncc3Cl)c2c1 (stereo not drawn) [Compound 109] | 200 to 5000 | < 20 | 200 to 5000 | 20 to 200 | 20 to 200 | 100 to 1000
N#CC1CCN(C(=O)c2ccc3c(-c4nc(NC5CCCNC5)ncc4C(F)(F)F)c[nH]c3c2)C1 (stereo not drawn) [Compound 292] | 200 to 5000 | < 20 | 200 to 5000 | 200 to 5000 | 20 to 200 | 100 to 1000
CCc1cnc(NC2CCCNC2)nc1-c1c[nH]c2c(S(C)(=O)=O)c(C#N)ccc12 (stereo not drawn) [Compound 263] | ≥ 5000 | < 20 | ≥ 5000 | ≥ 5000 | 20 to 200 | 100 to 1000
CCc1cnc(NC2CCCNC2)nc1-c1n[nH]c2nc(C#N)ccc12 (stereo not drawn) [Compound 277] | 200 to 5000 | < 20 | 200 to 5000 | 200 to 5000 | 20 to 200 | 100 to 1000
